According to patent US20220211614A1, “COMPOSITIONS AND IMPLANTABLE DEVICES” (Commonwealth Scientific and Industrial Research Organisation, priority 2019, published 2022):
No end group written: not given here.

Assays:
[1] = cited from earlier work
[2] = target: relaxin family peptide receptor 1 (RXFP1), stably expressed on human embryonic kidney cells (HEK-RXFP1) (UniProt Q9HBX9); test: cell-based or functional assay
[3] = target: T1, relaxin family peptide receptor 1 (RXFP1) (Homo sapiens, UniProt Q9HBX9); test: HEK-RXFP1 cAMP reporter gene assay; format: cell-based
T1 construct: expressed in transfected cells; host or cells: HEK (human embryonic kidney) cells stably expressing RXFP1, with pCRE beta-galactosidase reporter
T1 sequence (Q9HBX9 1-757): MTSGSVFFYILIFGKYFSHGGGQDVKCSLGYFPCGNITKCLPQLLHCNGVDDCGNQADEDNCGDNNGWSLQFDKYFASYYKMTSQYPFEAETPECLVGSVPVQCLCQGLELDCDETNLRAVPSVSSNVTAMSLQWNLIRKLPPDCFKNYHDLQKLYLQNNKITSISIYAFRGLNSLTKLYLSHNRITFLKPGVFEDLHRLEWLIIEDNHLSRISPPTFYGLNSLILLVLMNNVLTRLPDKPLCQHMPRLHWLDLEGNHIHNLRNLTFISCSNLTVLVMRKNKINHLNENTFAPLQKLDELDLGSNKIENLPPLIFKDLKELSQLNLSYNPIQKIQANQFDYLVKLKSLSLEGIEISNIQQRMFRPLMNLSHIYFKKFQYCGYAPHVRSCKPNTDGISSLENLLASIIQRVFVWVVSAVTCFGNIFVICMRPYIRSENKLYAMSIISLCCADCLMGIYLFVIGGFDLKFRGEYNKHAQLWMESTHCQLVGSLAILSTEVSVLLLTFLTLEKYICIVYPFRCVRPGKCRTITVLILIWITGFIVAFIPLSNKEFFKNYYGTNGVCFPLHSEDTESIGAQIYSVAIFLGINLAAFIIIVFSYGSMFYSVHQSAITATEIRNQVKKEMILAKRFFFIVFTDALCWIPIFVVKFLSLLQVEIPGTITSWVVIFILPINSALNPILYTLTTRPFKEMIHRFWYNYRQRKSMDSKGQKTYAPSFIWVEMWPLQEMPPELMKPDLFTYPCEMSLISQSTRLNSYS
Description: HEK-RXFP1 cAMP Reporter Gene Assay
B7-33 activity at RXFP1 was assessed using a cAMP reporter gene assay as previously described (Scott et al. J. Biol. Chem. 2006, 281:34942-3495) with slight modification. PLGA B7-33 well plate coatings, and peptide controls in the absence of PLGA (dried peptide), were compared to solubilized B7-33 solution standards ([…]) and H2 relaxin (10 nM). Wells were seeded (25,000 cells per well, 100 μL) with dispersed HEK-RXFP1-pCRE reporter cells and incubated for 6 hours. Cells were then lysed and the reporter gene stimulated β-galactosidase activity was measured using a colorimetric substrate to evaluate the relative cAMP responses. Ligand-induced cAMP stimulation was expressed as a % of maximal response to H2 relaxin. Each data point was measured in triplicate and each experiment conducted independently at least three separate times.

For `CC(C)Oc1ccccc1C(=O)Nc1ccccc1C(=O)Nc1cccc(S(=O)(=O)C(F)(F)F)c1` [ML290], which in vivo half-life [1] is on record?
Its in vivo half-life is “approximately 8 hours”.

With “B7-33 peptide (single B chain peptide analogue of H2 relaxin)” as the compound, how does the EC50, cAMP reporter gene assay (beta-galactosidase, colorimetric) in HEK-RXFP1 cells; B7-33 peptide solution control [2] read?
The EC50, cAMP reporter gene assay (beta-galactosidase, colorimetric) in HEK-RXFP1 cells; B7-33 peptide solution control was 1 µM.

What about the EC50, cAMP reporter gene assay (beta-galactosidase, colorimetric) in HEK-RXFP1 cells; PLGA-free dried peptide control [2] of the same compound?
The EC50, cAMP reporter gene assay (beta-galactosidase, colorimetric) in HEK-RXFP1 cells; PLGA-free dried peptide control was 1 µM.

With VIKLSGRELVRAQIAISGMSTWSKRSL-NH2 [B7-33] as the compound, how does the “retained activity against the RXFP1 receptor after drying/oxidation” value ([3]; HEK-RXFP1 cell assay (FIG. 2), oxidized species of B7-33 observed by MALDI) read?
Its value is “retains activity against the RXFP1 receptor”.

And the EC50 ([3]; cAMP reporter gene (β-galactosidase), HEK-RXFP1 cells, 6 hours incubation)?
Its EC50 is 1 µM.

With recombinant human relaxin 2 as the compound, how does the in vivo half-life [1] read?
Its in vivo half-life is 40 min.
